Measurements published in US12398121B2 (Nuvation Bio Inc., priority 2018, dated 2025).
Where two headings read alike, the source gives them in different places.

What was measured:
Human recombinant PARP1 = Human recombinant PARP1 (Homo sapiens, UniProt P09874); assay: RBC HotSpot PARP1 radioisotope-based filter binding assay; assay type: biochemical
Method: (§1) The following methods are for evaluating the in vitro biology properties of the test articles. • a. RBC HotSpot Poly(ADP-ribose) Polymerases 1 (PARP1) and Poly(ADP-ribose) Polymerases 2 (PARP2) Assays: The assay principle is radioisotope-based filter binding assay where incorporation of radioisotope-labeled NAD^+ into the substrate captured on filter is detected after washout free NAD^+. Data were analyzed using Excel and GraphPad Prism software for IC50 curve fits. Each assay was conducted with PJ34 as a positive control. • i. PARP1 assay: Human recombinant PARP1 at a final concentration of 2.5 nM was combined with histone H4 (20 μM) and test articles at various concentrations in reaction buffer (50 mM Tris-HCL, pH 8.0, 50 mM NaCl, 10 mM MgCl2, 1 mM DTT, 1% DMSO, and 20 μg/mL activated DNA). The solution was inoculated for 20 min at room temperature and the reaction initiated by adding [adenylate-^32P]-Nicotinamide Adenine Dinucleotide, ^32P-NAD^+ at a final concentration of 10 μM. After incubation for 2 hour at room temperature, the reaction mixture was filtered and washed with 0.75% phosphoric acid for radioactivity detection. • ii. PARP2 assay: Human recombinant PARP2 at a final concentration of 2.5 nM was combined with histone H3 (20 μM) and test articles at various concentrations in reaction buffer (50 mM Tris-HCL, pH 8.0, 50 mM NaCl, 10 mM MgCl2, 1 mM DTT, 1% DMSO, and 20 μg/mL activated DNA). The solution was inoculated for 20 min at room temperature and the reaction was initiated by adding [adenylate-^32P]-Nicotinamide Adenine Dinucleotide, ^32P-NAD^+ at a final concentration of 10 μM. After incubation for 2 hour at room temperature, the reaction mixture was filtered and washed with 0.75% phosphoric acid for radioactivity detection. • b. AR binding assay: AR in LNCaP cytosol was used for determining the binding affinity of test articles and the reference compound—progesterone (Sigma, Cat: E2785, St. Louis, MO). IC50s were determined using 8 concentrations/compound. Cytosol was plated at 200 μg/well (100 μL) into a 96-well conical polypropylene plate (Agilent, Cat: 5042-1385, Santa Clara, CA) and mixed with 3 μL of test compound. After adding 100 μL of ^3H-methyltrienolone (PerkinElmer, Cat: NET590250UC, San Jose, CA), the plate was sealed and shaken at 300 rpm at 4° C. for 24 hours. Post incubation, 100 μL of radioligand adsorption buffer containing 10 mM Tris-HCl, pH 7.4; 1.5 mM EDTA; 1 mM DTT; 0.25% charcoal; 0.0025% dextran was added to individual well. Plate was shaken for 15 min at 4′C followed by centrifugation at 3000 rpm for 30 min at 4° C. 150 μL of supernatant was transferred into scint-tube (PerkinElmer, Cat: 6000192) and mixed with 2 mL of Ultima Gold Cocktail (PerkinElmer, Cat: 6013329). Radioactivity was counted using a TriCarb 2910 TR scintillation counter (PerkinElmer). Inhibition of the radioactivity by test articles were calculated using the equation below: % Inhibition=(1−(Assay well−Average_LC)/(Average_HC−Average_LC))×100%.

AR in LNCaP cytosol = target: T1, AR in LNCaP cytosol (Homo sapiens, UniProt P10275, T878A); assay: AR binding assay (3H-methyltrienolone displacement)
T1 construct: endogenous in cells; host or cells: LNCaP cytosol
T1 sequence (P10275 1-920 T878A): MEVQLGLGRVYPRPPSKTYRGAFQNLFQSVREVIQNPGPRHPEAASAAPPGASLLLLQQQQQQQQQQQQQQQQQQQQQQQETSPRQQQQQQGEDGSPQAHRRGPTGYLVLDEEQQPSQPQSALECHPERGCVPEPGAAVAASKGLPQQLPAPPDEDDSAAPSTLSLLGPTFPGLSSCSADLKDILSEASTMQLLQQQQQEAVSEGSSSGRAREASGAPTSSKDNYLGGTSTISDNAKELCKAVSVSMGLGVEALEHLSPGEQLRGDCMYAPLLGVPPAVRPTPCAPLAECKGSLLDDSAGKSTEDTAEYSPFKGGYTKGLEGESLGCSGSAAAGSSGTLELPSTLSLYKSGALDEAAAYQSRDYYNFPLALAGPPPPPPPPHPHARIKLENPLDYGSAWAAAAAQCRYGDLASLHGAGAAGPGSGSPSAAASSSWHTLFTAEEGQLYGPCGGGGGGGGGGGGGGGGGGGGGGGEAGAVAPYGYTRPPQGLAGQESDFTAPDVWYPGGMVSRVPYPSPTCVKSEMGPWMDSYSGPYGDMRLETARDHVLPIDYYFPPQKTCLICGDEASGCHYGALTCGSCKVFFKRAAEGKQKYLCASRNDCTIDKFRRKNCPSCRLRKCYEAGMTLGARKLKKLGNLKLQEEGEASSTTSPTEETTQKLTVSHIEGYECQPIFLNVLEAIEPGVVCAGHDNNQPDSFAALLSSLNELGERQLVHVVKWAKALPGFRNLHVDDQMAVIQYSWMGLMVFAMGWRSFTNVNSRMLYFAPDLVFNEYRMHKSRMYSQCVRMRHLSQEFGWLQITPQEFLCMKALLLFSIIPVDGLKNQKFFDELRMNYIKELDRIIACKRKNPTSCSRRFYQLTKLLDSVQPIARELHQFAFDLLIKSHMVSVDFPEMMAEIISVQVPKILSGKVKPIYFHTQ
Method: as §1
IC50 values were calculated and graphed using the model “log(inhibitor) vs. response—Variable slope” included in GraphPad Prism 5 (San Diego, CA). The Ki values were further calculated using the equation below where [L] was the radioligand concentration (1 nM) using in this study. Kd value was 0.332 nM. Ki=IC50/(1+[L]/Kd) c. AR transactivation: Human AR cloned into a CMV vector backbone was used for the transactivation study. HEK-293 cells were plated at 80,000 cells per well of a 24 well plate in DME+5% csFBS. Twenty four hours later, the cells were transfected using Lipofectamine (Invitrogen, Carlsbad, CA) with 0.25 μg GRE-LUC, 0.01 μg CMV-LUC (renilla luciferase) and 25 ng of the AR in OPTIMEM medium. The cells were treated 24 hrs after transfection with various ligands (10^−12 to 10^−5 M final concentrations) and luciferase assay were performed 48 hours after transfection. […]

[1] = 2.5 nM enzyme, histone H4, 10 μM 32P-NAD+, read-out: PARP1 IC50

Chain of Human recombinant PARP1 (P09874 whole entry): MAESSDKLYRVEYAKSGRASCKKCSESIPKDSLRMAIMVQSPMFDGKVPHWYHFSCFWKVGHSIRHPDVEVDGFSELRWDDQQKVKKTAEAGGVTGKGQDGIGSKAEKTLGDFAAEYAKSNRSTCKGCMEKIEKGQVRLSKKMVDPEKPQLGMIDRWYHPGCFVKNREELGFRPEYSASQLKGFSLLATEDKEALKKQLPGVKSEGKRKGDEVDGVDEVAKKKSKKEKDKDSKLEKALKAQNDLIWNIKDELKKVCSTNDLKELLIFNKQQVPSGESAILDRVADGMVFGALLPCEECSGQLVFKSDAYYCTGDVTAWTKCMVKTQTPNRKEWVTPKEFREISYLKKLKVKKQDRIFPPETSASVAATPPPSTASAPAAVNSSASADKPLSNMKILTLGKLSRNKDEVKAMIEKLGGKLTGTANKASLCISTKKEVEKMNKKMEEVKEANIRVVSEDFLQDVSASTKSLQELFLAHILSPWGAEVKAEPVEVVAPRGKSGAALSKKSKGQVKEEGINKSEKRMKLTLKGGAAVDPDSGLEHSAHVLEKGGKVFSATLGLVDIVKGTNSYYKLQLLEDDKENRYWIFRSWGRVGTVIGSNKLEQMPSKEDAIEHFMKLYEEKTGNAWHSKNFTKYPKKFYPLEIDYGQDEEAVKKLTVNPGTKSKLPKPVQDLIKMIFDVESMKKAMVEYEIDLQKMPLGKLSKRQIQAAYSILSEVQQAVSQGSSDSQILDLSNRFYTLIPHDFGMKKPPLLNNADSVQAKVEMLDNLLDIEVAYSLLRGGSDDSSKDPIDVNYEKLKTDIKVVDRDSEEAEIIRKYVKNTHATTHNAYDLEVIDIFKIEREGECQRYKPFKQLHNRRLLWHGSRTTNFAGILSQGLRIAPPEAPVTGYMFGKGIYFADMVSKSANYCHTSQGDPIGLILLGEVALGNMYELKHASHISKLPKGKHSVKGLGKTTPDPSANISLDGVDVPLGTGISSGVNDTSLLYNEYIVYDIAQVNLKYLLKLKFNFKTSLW

Structure (SMILES)	IC50 (Human recombinant PARP1)	Ki (AR in LNCaP cytosol)	IC50 (Human recombinant PARP1; [1])
CC(O)(CS(=O)(=O)c1ccc(NCCn2cc(CN3CCN(C(=O)c4cc(Cc5n[nH]c(=O)c6ccccc56)ccc4F)CC3)nn2)cc1)C(=O)Nc1ccc(C#N)c(C(F)(F)F)c1 (stereo in doubt) [Compound 1.97, (S)-N-(4-cyano-3-(trifluoromethyl)phenyl)-3-(4-(2-(4-((4-(2-fluoro-5-((4-oxo-3,4-dihydrophthalazin-1-yl)methyl)benzoyl)piperazin-1-yl)methyl)-1H-1,2,3-triazol-1-yl)ethylamino)phenylsulfonyl)-2-hydroxy-2-methylpropanamide]	2 nM	504 nM	–
C[C@]12CCC(=O)C[C@@H]1CC[C@@H]1[C@@H]2CC[C@@]2(C)[C@H]1CC[C@@]2(O)CCC(=O)N1CCN(C(=O)c2cc(Cc3n[nH]c(=O)c4ccccc34)ccc2F)CC1 (stereo in doubt) [Compound 1.117, 4-(4-fluoro-3-(4-(3-((5S,8R,9S,10S,13S,14S,17R)-17-hydroxy-10,13-dimethyl-3-oxohexadecahydro-1H-cyclopenta[a]phenanthren-17-yl)propanoyl)piperazine-1-carbonyl)benzyl)phthalazin-1(2H)-one]	–	60 nM	0.3 nM
CC1(C)C(=O)N(c2ccc(C#N)c(C(F)(F)F)c2)C(=S)N1c1ccc(C(=O)NCCCCCC(=O)N2CCN(C(=O)c3cc(Cc4n[nH]c(=O)c5ccccc45)ccc3F)CC2)c(F)c1 [Compound 1.1, 4-(3-(4-cyano-3-(trifluoromethyl)phenyl)-5,5-dimethyl-4-oxo-2-thioxoimidazolidin-1-yl)-2-fluoro-N-(6-(4-(2-fluoro-5-((4-oxo-3,4-dihydrophthalazin-1-yl)methyl)benzoyl)piperazin-1-yl)-6-oxohexyl)benzamide]	2 nM	–	–
C[C@]12CCC(=O)C[C@@H]1CC[C@@H]1[C@@H]2CC[C@]2(C)[C@@H](OCCCCCC(=O)N3CCN(C(=O)c4cc(Cc5n[nH]c(=O)c6ccccc56)ccc4F)CC3)CC[C@@H]12 [Compound 1.2, 4-(3-(4-(6-(((5S,8R,9S,10S,13S,14S,17S)-10,13-dimethyl-3-oxohexadecahydro-1H-cyclopenta[a]phenanthren-17-yl)oxy)hexanoyl)piperazine-1-carbonyl)-4-fluorobenzyl)phthalazin-1(2H)-one]	–	1.31 nM	3 nM
CC1(C)C(=O)N(c2ccc(C#N)c(C(F)(F)F)c2)C(=S)N1c1ccc(C(=O)NCCCCCCNCc2ccc(-c3[nH]c4cc(F)cc5c4c3CCNC5=O)cc2)c(F)c1 [Compound 1.5, 4-(3-(4-cyano-3-(trifluoromethyl)phenyl)-5,5-dimethyl-4-oxo-2-thioxoimidazolidin-1-yl)-2-fluoro-N-(6-((4-(8-fluoro-1-oxo-2,3,4,6-tetrahydro-1H-azepino[5,4,3-cd]indol-5-yl)benzyl)amino)hexyl)benzamide]	23 nM	291 nM	–
C[C@](O)(CS(=O)(=O)c1ccc(NCCCCCC(=O)N2CCN(C(=O)c3cc(Cc4n[nH]c(=O)c5ccccc45)ccc3F)CC2)cc1)C(=O)Nc1ccc(C#N)c(C(F)(F)F)c1 [Compound 1.68, (R)-N-(4-cyano-3-(trifluoromethyl)phenyl)-3-(4-(6-(4-(2-fluoro-5-((4-oxo-3,4-dihydrophthalazin-1-yl)methyl)benzoyl)piperazin-1-yl)-6-oxohexylamino)phenylsulfonyl)-2-hydroxy-2-methylpropanamide]	0.3 nM	907 nM	–
C[C@](O)(COc1ccc(NCCCCCC(=O)N2CCN(C(=O)c3cc(Cc4n[nH]c(=O)c5ccccc45)ccc3F)CC2)cc1)C(=O)Nc1ccc(C#N)c(C(F)(F)F)c1 [Compound 1.83, (S)-N-(4-cyano-3-(trifluoromethyl)phenyl)-3-(4-(6-(4-(2-fluoro-5-((4-oxo-3,4-dihydrophthalazin-1-yl)methyl)benzoyl)piperazin-1-yl)-6-oxohexylamino)phenoxy)-2-hydroxy-2-methylpropanamide]	–	139 nM	0.7 nM
C[C@](O)(CS(=O)(=O)c1ccc(NCC(=O)N2CCN(C(=O)c3cc(Cc4n[nH]c(=O)c5ccccc45)ccc3F)CC2)cc1)C(=O)Nc1ccc(C#N)c(C(F)(F)F)c1 [Compound 1.98, (R)-N-(4-cyano-3-(trifluoromethyl)phenyl)-3-(4-(2-(4-(2-fluoro-5-((4-oxo-3,4-dihydrophthalazin-1-yl)methyl)benzoyl)piperazin-1-yl)-2-oxoethylamino)phenylsulfonyl)-2-hydroxy-2-methylpropanamide]	0.2 nM	181 nM	–
CN(CCCCCC(=O)N1CCN(C(=O)c2cc(Cc3n[nH]c(=O)c4ccccc34)ccc2F)CC1)CCOc1ccc(C(=O)c2c(-c3ccc(O)cc3)sc3cc(O)ccc23)cc1 [Compound 2.4, 4-(4-fluoro-3-(4-(6-((2-(4-(6-hydroxy-2-(4-hydroxyphenyl)benzo[b]thiophene-3-carbonyl)phenoxy)ethyl)(methyl)amino)hexanoyl)piperazine-1-carbonyl)benzyl)phthalazin-1(2H)-one]	–	–	4 nM
O=C(c1ccc(OCCN2CCN(C(=O)c3cc(Cc4n[nH]c(=O)c5ccccc45)ccc3F)CC2)cc1)c1c(-c2ccc(O)cc2)sc2cc(O)ccc12 [Compound 2.13, 4-(4-fluoro-3-(4-(2-(4-(6-hydroxy-2-(4-hydroxyphenyl)benzo[b]thiophene-3-carbonyl)phenoxy)ethyl)piperazine-1-carbonyl)benzyl)phthalazin-1(2H)-one]	–	–	3.3 nM
CCC(=C(c1ccc(O)cc1)c1ccc(OCCN2CCN(C(=O)c3cc(Cc4n[nH]c(=O)c5ccccc45)ccc3F)CC2)cc1)c1ccccc1 [Compound 2.14, 4-(4-fluoro-3-(4-(2-(4-(1-(4-hydroxyphenyl)-2-phenylbut-1-enyl)phenoxy)ethyl)piperazine-1-carbonyl)benzyl)pthalazin-1(2H)-one]	–	–	274 nM
